Values joined by “and” are separate entries in the source; they are usually repeats but may differ in a detail not shown here. Equal entries are not always repeated. Structures can show the parent of a compound that is named as a salt.
How the values were obtained:
[1] = test system: experimental acute pancreatitis model; experiment: Effects against acute pancreatitis (Test Example 7, closed duodenal loop method, gross pathological examination); type: in vivo, Crj-CD male rats; set-up: key to Pancreatic edema Distribution: -: No significant lesions; ± ∼ +++: Focal-diffuse; ± ∼ +++: Focal-diffuse; ± ∼ +++: Focal-diffuse; ± ∼ +++: Focal-diffuse; key to Pancreatic hemorrhage Petechia Grade / Pancreatic edema Grade: -: No significant lesions; ±: Minimal; +: Light; ++: Moderate; +++: Marked; conditions: 40 mg per kg continuous intravenous injection, examination 3 hours after ventrotomy, individual rats
Description: (§1) Using Crj-CD male rats (for Compound No. 19, rats having a body weight of from 371 to 484 g were used, and for Compound No. 10, rats having a body weight of from 444 to 574 g were used), each test group consisted of 3 rats. An experimental acute pancreatitis model was prepared by a closed duodenal loop method under anesthesia with halothane (manufactured by Hoechst Japan) and nitrous oxide (manufactured by Sumitomo Seika K.K.) applied by means of a general inhalation anesthesia machine (Model EM-2 and halothane evaporator F-Model). Then, Compound No. 19 or Compound No. 10 was continuously intravenously injected into the tail vein in an amount of 50 mg per kg or 40 mg per kg, respectively, at a rate of 0.05 ml per minute by means of a pump (Technicon AA II Proportioning Pump III, manufactured by Technicon Instruments Corporation). No injection was made to a control group. Gross pathological examination was conducted upon expiration of 6 hours after the ventrotomy in the case of the test group to which Compound No. 19 was administered, or upon expiration of 3 hours after the ventrotomy in the case of the test group to which Compound No. 10 was administered. As a result, as shown in the following Table 12, the groups to which the compounds of the present invention were administered, show distinct usefulness for treating acute pancreatitis.

[2] = test system: experimental acute pancreatitis model; experiment: as above; type: in vivo, Crj-CD male rats; set-up: key: -: No significant lesions; ± ∼ +++: Focal-diffuse; ± ∼ +++: Focal-diffuse; ± ∼ +++: Focal-diffuse; ± ∼ +++: Focal-diffuse; conditions: 40 mg per kg continuous intravenous injection, examination 3 hours after ventrotomy, individual rats
Description: as §1

ddy male mice = experiment: Acute toxicity, intravenous injection (LD50); type: in vivo; conditions: sodium salt, mortality over one week, 10080 min
Description: Administration route: Intravenous injection
Using ddy male mice (body weight: 25 - 30 g), each test group consisted of 5 mice. A test compound was dissolved in the form of a sodium salt in a physiological saline or in a 5% glucose aqueous solution, and intravenously injected in an amount of 0.1 ml/10 g body weight. After the injection, the mortality rate was obtained over one week, and the median lethal dose LD50 (mg/kg) was determined.

| Structure (SMILES) | Pancreatic edema Distribution [1] | Pancreatic edema Grade [1] | Pancreatic hemorrhage Petechia Grade [1] | Pancreatic hemorrhage Petechia Distribution [2] | LD50 (ddy male mice) |
| --- | --- | --- | --- | --- | --- |
| CS(=O)(=O)Nc1ncc(C(F)(F)F)cc1NC(=O)c1ccc(F)cc1 [Compound No. 10, N-(2-methylsulfonylamino-5-trifluoromethyl-3-pyridyl)-4-fluorobenzamide] | ± and + (2×) | ± and + and †† | ± and - and + | ± and + |  |
| CCS(=O)(=O)Nc1ncc(C(F)(F)F)cc1NC(=O)C1CCCCC1 [Compound No. 251, sodium salt of N-(2-ethylsulfonylamino-5-trifluoromethyl-3-pyridyl)cyclohexanecarboxamide] |  |  |  |  | 65 mg/kg |

Source: patent publication EP0465913B1, “Diaminotrifluoromethylpyrimidine derivatives, process for their production and phospholipase A2 inhibitor containing them” (ISHIHARA SANGYO KAISHA, LTD., priority 1990, dated 1992)
